The record followed here is patent publication US7994336B2, “Azetidine compounds as orexin receptor antagonists” (Actelion Pharmaceuticals Ltd., priority 2006, dated 2011).

One experiment deals with T1, human orexin-2 receptor (Homo sapiens, UniProt O43614).
T1 construct: expressed in transfected cells; host or cells: CHO cells (grown under G418 selection)
T1 sequence (O43614 1-444): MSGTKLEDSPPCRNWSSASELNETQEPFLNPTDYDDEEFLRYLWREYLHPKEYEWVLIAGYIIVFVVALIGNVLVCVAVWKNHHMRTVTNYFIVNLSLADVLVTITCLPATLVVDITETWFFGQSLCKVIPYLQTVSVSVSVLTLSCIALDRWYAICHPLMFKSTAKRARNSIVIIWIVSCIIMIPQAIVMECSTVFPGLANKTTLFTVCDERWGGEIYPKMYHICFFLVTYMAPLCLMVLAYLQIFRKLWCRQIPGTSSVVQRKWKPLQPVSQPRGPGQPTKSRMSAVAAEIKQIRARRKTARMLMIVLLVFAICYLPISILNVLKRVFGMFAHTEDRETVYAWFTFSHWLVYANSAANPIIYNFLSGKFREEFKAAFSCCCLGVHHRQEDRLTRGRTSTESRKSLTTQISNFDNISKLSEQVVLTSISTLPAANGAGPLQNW
Briefly: Intracellular calcium measurements (FLIPR), orexin receptor antagonistic activity. The class given is cell-based. The following applies: CHO cells expressing human orexin-2 receptor; 10 nM orexin-A as agonist; fluo-3 AM calcium signal; read-out: OX2 IC50. Here is the method:
(§1) The orexin receptor antagonistic activity of the compounds of formula (I) is determined in accordance with the following experimental method.
(§2) Chinese hamster ovary (CHO) cells expressing the human orexin-1 receptor and the human orexin-2 receptor, respectively, are grown in culture medium (Ham F-12 with L-Glutamine) containing 300 μg/ml G418, 100 U/ml penicillin, 100 μg/ml streptomycin and 10% inactivated fetal calf serum (FCS). The cells are seeded at 80′000 cells/well into 96-well black clear bottom sterile plates (Costar) which have been precoated with 1% gelatine in Hanks' Balanced Salt Solution (HBSS). All reagents are from Gibco BRL. The seeded plates are incubated overnight at 37° C. in 5% CO2.
(§3) Human orexin-A as an agonist is prepared as 1 mM stock solution in methanol:water (1:1), diluted in HBSS containing 0.1% bovine serum albumin (BSA) and 2 mM HEPES for use in the assay at a final concentration of 10 nM.
(§4) Antagonists are prepared as 10 mM stock solution in DMSO, then diluted in 96-well plates, first in DMSO, then in HBSS containing 0.1% bovine serum albumin (BSA) and 2 mM HEPES.
(§5) On the day of the assay, 100 μl of loading medium (HBSS containing 1% FCS, 2 mM HEPES, 5 mM probenecid (Sigma) and 3 μM of the fluorescent calcium indicator fluo-3 AM (1 mM stock solution in DMSO with 10% pluronic acid) (Molecular Probes) is added to each well.
(§6) The 96-well plates are incubated for 60 min at 37° C. in 5% CO2. The loading solution is then aspirated and cells are washed 3 times with 200 μl HBSS containing 2.5 mM probenecid, 0.1% BSA, 2 mM HEPES. 100 μl of that same buffer is left in each well. Within the Fluorescent Imaging Plate Reader (FLIPR, Molecular Devices), antagonists are added to the plate in a volume of 50 μl, incubated for 20 min and finally 100 μl of agonist is added. Fluorescence is measured for each well at 1 second intervals, and the height of each fluorescence peak is compared to the height of the fluorescence peak induced by 10 nM orexin-A with buffer in place of antagonist. For each antagonist, IC50 value (the concentration of compound needed to inhibit 50% of the agonistic response) is determined.

Another experiment addresses T2, human orexin-1 receptor (Homo sapiens, UniProt O43613).
T2 construct: expressed in transfected cells; host or cells: CHO cells (grown under G418 selection)
T2 sequence (O43613 1-425): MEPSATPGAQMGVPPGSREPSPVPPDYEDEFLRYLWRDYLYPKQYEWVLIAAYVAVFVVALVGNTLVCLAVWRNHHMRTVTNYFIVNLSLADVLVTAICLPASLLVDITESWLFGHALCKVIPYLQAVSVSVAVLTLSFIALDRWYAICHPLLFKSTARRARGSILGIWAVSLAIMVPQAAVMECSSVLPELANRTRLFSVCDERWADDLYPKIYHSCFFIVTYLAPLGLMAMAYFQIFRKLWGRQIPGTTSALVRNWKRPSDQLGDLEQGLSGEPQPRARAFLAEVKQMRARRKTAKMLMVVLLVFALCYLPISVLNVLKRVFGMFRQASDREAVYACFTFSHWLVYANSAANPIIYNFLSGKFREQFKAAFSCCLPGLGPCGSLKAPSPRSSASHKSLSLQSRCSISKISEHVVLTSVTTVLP
Described as above. The experiment is classed as cell-based. The following applies: CHO cells expressing human orexin-1 receptor; 10 nM orexin-A as agonist; fluo-3 AM calcium signal; read-out: OX1 IC50. Here is the method:
as §1, §2, §3, §4, §5, §6

Turning to `Cc1nc(C(=O)N2CCC2CNC(=O)c2c(C)nc3sccn23)c(-c2ccc(Cl)c(Cl)c2)s1` (racemic) [Example 32, (2RS)-6-Methyl-imidazo[2,1-b]thiazole-5-carboxylic acid{1-[5-(3,4-dichloro-phenyl)-2-methyl-thiazole-4-carbonyl]-azetidin-2-ylmethyl}-amide], the 50% inhibitory concentration (IC50) on human orexin-2 receptor was 25 nM; at human orexin-1 receptor it was 75 nM.

In the case of `Cc1cccc(-c2sc(C)nc2C(=O)N2CCC2CNC(=O)c2c(C(F)(F)F)nc3sccn23)c1` (racemic) [Example 50, (2RS)-6-Trifluoromethyl-imidazo[2,1-b]thiazole-5-carboxylic acid [1-(2-methyl-5-m-tolyl-thiazole-4-carbonyl)-azetidin-2-ylmethyl]-amide], the IC50 at human orexin-2 receptor amounted to 57 nM; on human orexin-1 receptor, 391 nM.

Regarding `Cc1nc(C(=O)N2CCC2CNC(=O)c2c(C)nc3sccn23)c(-c2ccc(F)c(F)c2)s1` (stereo not drawn) [Example 67, (2RS)-6-Methyl-imidazo[2,1-b]thiazole-5-carboxylic acid{1-[5-(3,4-difluoro-phenyl)-2-methyl-thiazole-4-carbonyl]-azetidin-2-ylmethyl}-amide], the figures for the IC50 on human orexin-2 receptor and at human orexin-1 receptor were 102 nM and 2010 nM, respectively.

As for `Cc1cccc(-c2sc(C)nc2C(=O)N2CCC2CNC(=O)c2nc3sccn3c2C)c1` (racemic) [Example 42, (2RS)-5-Methyl-imidazo[2,1-b]thiazole-6-carboxylic acid [1-(2-methyl-5-m-tolyl-thiazole-4-carbonyl)-azetidin-2-ylmethyl]-amide], the figures for the IC50 on human orexin-2 receptor and on human orexin-1 receptor were 41 nM and 85 nM, respectively.

For `Cc1cccc(-c2sc(C)nc2C(=O)N2CCC2CNC(=O)c2nc3scc(C)n3c2C)c1` (racemic) [Example 40, (2RS)-3,5-Dimethyl-imidazo[2,1-b]thiazole-6-carboxylic acid [1-(2-methyl-5-m-tolyl-thiazole-4-carbonyl)-azetidin-2-ylmethyl]-amide], the IC50 on human orexin-2 receptor came out at 39 nM; at human orexin-1 receptor, 11 nM.

With `Cc1cccc(-c2sc(C)nc2C(=O)N2CCC2CNC(=O)c2cccc3c2OCCN3C)c1` (racemic) [Example 54, (2RS)-4-Methyl-3,4-dihydro-2H-benzo[1,4]oxazine-8-carboxylic acid [1-(2-methyl-5-m-tolyl-thiazole-4-carbonyl)-azetidin-2-ylmethyl]-amide], the IC50 on human orexin-2 receptor is 13 nM; on human orexin-1 receptor, 3100 nM.

As for `Cc1cccc(-c2sc(C)nc2C(=O)N2CCC2CNC(=O)c2cccc3c2OCCC3)c1` (racemic) [Example 57, (2RS)-Chroman-8-carboxylic acid [1-(2-methyl-5-m-tolyl-thiazole-4-carbonyl)-azetidin-2-ylmethyl]-amide], the IC50 on human orexin-2 receptor was 19 nM; at human orexin-1 receptor, 1200 nM.

Consider `Cc1cccc(-c2oc(C)nc2C(=O)N2CCC2CNC(=O)c2c(C)nc3sccn23)c1` (stereo not drawn) [Example 83, (2RS)-6-Methyl-imidazo[2,1-b]thiazole-5-carboxylic acid [1-5-(2-methyl-5-m-tolyl-oxazole-4-carbonyl)-azetidin-2-ylmethyl]-amide], for which the IC50 on human orexin-2 receptor was 406 nM; on human orexin-1 receptor it was 1640 nM.

With `Cc1cccc(-c2sc(C)nc2C(=O)N2CCC2CNC(=O)c2cnc3scc(C)n23)c1` (racemic) [Example 61, (2RS)-3-Methyl-imidazo[2,1-b]thiazole-5-carboxylic acid [1-(2-methyl-5-m-tolyl-thiazole-4-carbonyl)-azetidin-2-ylmethyl]-amide], the IC50 on human orexin-2 receptor stood at 43 nM; at human orexin-1 receptor, 1920 nM.

Turning to `COc1ccccc1C(=O)N1CC[C@H]1CNC(=O)c1cccc2occc12` [Example 9, (2S)-benzofuran-4-carboxylic acid [1-(2-methoxy-benzoyl)-azetidin-2-ylmethyl]-amide], the concentration for half-maximal inhibition (IC50) is 122 nM at human orexin-2 receptor and 88 nM on human orexin-1 receptor.

With `Cc1nc(C(=O)N2CCC2CNC(=O)c2c(C)nc3sccn23)c(-c2cccc(F)c2)s1` (stereo not drawn) [Example 11, (2RS)-6-Methyl-imidazo[2,1-b]thiazole-5-carboxylic acid{1-[5-(3-fluoro-phenyl)-2-methyl-thiazole-4-carbonyl]-azetidin-2-ylmethyl}-amide], the half-inhibitory concentration (IC50) on human orexin-2 receptor was 66 nM; on human orexin-1 receptor it was 196 nM.

Consider `COc1ccc(-c2sc(C)nc2C(=O)N2CCC2CNC(=O)c2c(C)nc3sccn23)cc1` (stereo not drawn) [Example 28, (2RS)-6-Methyl-imidazo[2,1-b]thiazole-5-carboxylic acid{1-[5-(4-methoxy-phenyl)-2-methyl-thiazole-4-carbonyl]-azetidin-2-ylmethyl}-amide], for which the values for the 50% inhibitory concentration (IC50) at human orexin-2 receptor and on human orexin-1 receptor were 11 nM and 89 nM, respectively.

Take `Cc1cccc(-c2sc(N)nc2C(=O)N2CC[C@H]2CNC(=O)c2c(Cl)nc3sccn23)c1` [Example 22, (2S)-6-Chloro-imidazo[2,1-b]thiazole-5-carboxylic acid [1-(2-amino-5-m-tolyl-thiazole-4-carbonyl)-azetidin-2-ylmethyl]-amide]: the IC50 is 5 nM on human orexin-2 receptor and 10 nM on human orexin-1 receptor.

For the compound `Cc1cccc(-c2sc(C)nc2C(=O)N2CC[C@H]2CNC(=O)c2c(Cl)nc3sccn23)c1` [Example 21, (2S)-6-Chloro-imidazo[2,1-b]thiazole-5-carboxylic acid [1-(2-methyl-5-m-tolyl-thiazole-4-carbonyl)-azetidin-2-ylmethyl]-amide], the half-maximal inhibitory concentration (IC50) on human orexin-2 receptor is 7 nM; at human orexin-1 receptor it was 41 nM.

As to `Cc1ccc(-c2ccccc2C(=O)N2CC[C@H]2CNC(=O)c2cccc3occc23)cc1C` [Example 15, (2S)-Benzofuran-4-carboxylic acid [1-(3′,4′-dimethyl-biphenyl-2-carbonyl)-azetidin-2-ylmethyl]-amide], the concentration for half-maximal inhibition (IC50) at human orexin-2 receptor amounted to 11 nM; on human orexin-1 receptor it was 70 nM.
